One compound from patent US12377110B2, “Fospropofol methods and compositions” (Epalex Corporation, priority 2019, dated 2025) can be followed below.

One data set concerns Sprague-Dawley rats. Briefly: Study No. 15-3 (GLP): 14-day once daily oral gavage toxicity of fospropofol disodium. Type of data set: in vivo. The procedure:
(§1) The purpose of Study No. 15-3 (GLP) was to determine the potential toxicity of fospropofol in Sprague-Dawley rats when administered once daily by oral gavage for 14 days. […] The cause of death for the three 250 mg/kg/day group main study females found dead could not be determined, but was considered related to the pharmacodynamic effects of fospropofol, based on the time of death relative to the time of close administration, and the clinical signs recorded before death. Clinical observations during the closing period for these animals included labored breathing, prostrate, splayed hindlimbs, uncoordinated movement, decreased activity, and eyes closed.
(§2) Pivotal GLP 14-day repeat-close toxicity studies with 7-day recovery periods were conducted in Sprague-Dawley rats (Study No. 15-3) and Beagle dogs (Study No. 15-4). […] The cause of death for these animals was considered to be related to the known pharmacodynamic effects of high doses of fospropofol, based on the time of death relative to the time of close administration, and the clinical signs recorded before death which included: labored breathing, prostrate, splayed hindlimbs, uncoordinated movement, decreased activity, and eyes closed. […] The NOAEL was determined to be 100 mg/kg/day (600 mg/m^2/day) in male and female Sprague-Dawley rats.

Assay in data set [1]: as above
It is filed as in vivo, Sprague-Dawley rats. The following applies: both sexes, rat, in vivo; 14 days once daily oral gavage, Sprague-Dawley rats. The method, then:
as §1, §2

In general, NOAEL refers to the highest tested level that showed no adverse finding. As to `CC(C)c1cccc(C(C)C)c1OCOP(=O)([O-])O.[Na+]` [fospropofol disodium], the Mortality entry in the data set with Sprague-Dawley rats (0, 50, 100, and 250 mg/kg/day for 14 consecutive days) is recorded as “treatment-related mortalities at 250 mg/kg/day”. Moreover, in the data set with Sprague-Dawley rats (250 mg/kg/day), the Body weight gain result is “reduced body weight gain” and the Prothrombin time result is “transient increase in prothrombin time”. In addition, the “Gross observations and microscopic findings” value in the data set on Sprague-Dawley rats (250 mg/kg/day main study females found dead) is given as “no treatment-related gross observations or microscopic findings”. The compound further came in with an NOAEL in the data set on Sprague-Dawley rats (14 days once daily oral gavage, Sprague-Dawley rats) of 600 mg/m^2/day. In the data set with Sprague-Dawley rats (high dose level (250 mg/kg/day), 14 days), this compound displayed a Mortalities of 4. The “Histopathology, all tissues including GIT-related” value in the data set on Sprague-Dawley rats (up to 250 mg/kg/day) is listed as “no treatment-related histopathology findings”. Besides, the NOAEL at 14 days in data set [1] was 100 mg/kg/day.
